{"source": "patent US20190300845A1", "about": "“SEQUENTIAL ADDITION OF MOLECULAR GERMINANTS TO BACTERIAL SPORES” (NOVOZYMES BIOAG A/S, priority 2016, published 2019)", "key": {"[1]": {"system": "spores from Bacillus pumilus strain SB3189", "experiment": "Germinant testing by decrease in relative OD580", "format": "cell-based", "settings": "substance alone, at a concentration of 3 mM"}, "[2]": {"system": "Bacillus subtilis strain SB3086 spores", "experiment": "Sequential germinant addition, germination by dipicolinic acid (DPA) release (Tb-DPA fluorescence)", "format": "cell-based", "experimental": "Bacterial spores from Bacillus subtilis strain SB3086 were prepared as described in the first paragraph of Example 1. The spore preparations were washed in sterile 4° C. water by centrifugation (10,000×g, 1 minute), aspirating the supernatant from the pellet, and suspending the spore pellet in water. This was performed three consecutive times. Optical densities of washed spore preparations were measured in sterile water at 4° C. using a Synergy H4 Multi-Mode Reader (Bio-Tek). The spore preparations were set to 5 OD600 units per ml. By phase-contrast microscopy, 99% of the particles in the samples appeared to be ungerminated spores.\nThe spores were then treated with 1 mM of L-alanine for 24 hours at 4° C. […] In one experiment, spores that had been treated with 1 mM L-alanine for 24 hours were washed in water to remove the L-alanine. Negative controls were not treated with L-alanine. Spores to be used as positive controls were boiled for 2 hours to release dipicolinic acid (see below).\n(§1) Germination of spores in these studies was determined by measuring dipicolinic acid (DPA). DPA is about 10% of the mass of endospores, which is generally released when germination occurs. Boiling spores generally releases all of the DPA (used as a positive control). DPA release was detected using terbium chloride (TbCl3), as described below.\n(§2) To perform the germination assays, 30 μl of spores were added to wells of a 96-well flat-bottom microtiter plate. Subsequently, 35 μl of a 250 μM TbCl3 stock was added. At time 0, 85 μl of a D-fructose solution was added, to give a final concentration of 10 mM D-fructose. The solution was mixed by pipetting, the microtiter plate was placed into a plate reader (Synergy H4 Multi-Mode Reader, Bio-Tek), and the sample wells were measured for presence of a fluorescent Tb-DPA product over time. Tb-DPA is excited at 270 nm and emits at 545 nm. All experimental samples were tested in triplicate. Baseline controls for each sample were generated by omitting L-alanine and these were performed in duplicate. All sample wells were measured immediately after D-fructose was added (time 0) and then over time. For each time point, the data were normalized to values for the spores that had been boiled for two hours to force 100% release of DPA from the spores."}, "[3]": {"system": "Bacillus pumilus strain SB3189 spores", "experiment": "Sequential germinant addition, germination by dipicolinic acid (DPA) release (Tb-DPA fluorescence)", "format": "cell-based", "experimental": "as §1, §2\nThe experiment was generally performed as described in Example 3. SB3189 spores were treated with various concentrations of L-alanine (0.0 mM, 0.5 mM, 1.0 mM, 2.0 mM, 3.0 mM, 4.0 mM, 5.0 mM, 6.0 mM, 7.0 mM, 8.0 mM, 9.0 mM, or 10.0 mM) for 24 hours at 4° C. […] D-fructose (10 mM) was then added to the L-alanine-treated spores (this was time 0) and DPA levels were measured over time."}, "[4]": {"system": "Bacillus megaterium strain SB3112 spores", "experiment": "KBr pretreatment, germination by dipicolinic acid (DPA) release (Tlag, Gmax)", "format": "cell-based", "experimental": "as §1, §2\nThese studies were generally performed as described in Example 3. SB3112 spores, heat-activated or not heat-activated (not heat-activated are called “native”), were treated with 0.5, 3.0, or 10.0 mM KBr overnight at either 4° or 22° C. […] The time at which the subsequent addition was made to the spores was considered time 0. DPA concentration was measured over time.\nTo facilitate comparison of the different samples, values for Tlag and Gmax were calculated for each spore treatment. Tlag is the time after exposure to germinants that a population of spores begins to rapidly release DPA into the environment. Tlag indicates, in part, how rapidly a population of spores responds to germinants. Gmax is the maximum percentage of DPA that a sample releases during an experiment, divided by the DPA released by the sample when boiled. Gmax is proportional to the percentage of spores in a population that germinates."}, "[5]": {"system": "spores from Bacillus megaterium strain SB3112", "experiment": "Germinant testing by decrease in relative OD580", "format": "cell-based", "settings": "amino acid along with KBr and D-glucose; each 3 mM"}, "[6]": {"system": "spores from Bacillus amyloliquefaciens strain SB3615", "experiment": "Germinant testing by decrease in relative OD580"}}, "data": [{"smiles": "O=C(CO)[C@@H](O)[C@H](O)[C@H](O)CO", "note": "[D-fructose]", "values": [{"measurement": "Germination of spores (decrease in relative OD580)", "setting": "[1]", "value": "None"}, {"measurement": "Germination (DPA release) with D-fructose", "setting": "[2]; 10 mM D-fructose, spores not treated with L-alanine", "value": "did not germinate"}, {"measurement": "Germination (DPA release) in presence of D-fructose", "setting": "[3]; 10 mM D-fructose, spores not treated with L-alanine (0 mM)", "value": "did not germinate"}]}, {"smiles": "[Br-].[K+]", "note": "[KBr]", "values": [{"measurement": "Gmax", "setting": "[4]; heat-activated spores, 0.5 mM KBr overnight at 4° C. before full germinant solution", "value": 92, "unit": "%"}, {"measurement": "Gmax", "setting": "[4]; heat-activated spores, 0.5 mM KBr overnight at 22° C. before full germinant solution", "value": 65, "unit": "%"}, {"measurement": "Gmax", "setting": "[4]; heat-activated spores, 3.0 mM KBr overnight at 4° C. before full germinant solution", "value": 123, "unit": "%"}, {"measurement": "Gmax", "setting": "[4]; heat-activated spores, 3.0 mM KBr overnight at 22° C. before full germinant solution", "value": 65, "unit": "%"}, {"measurement": "Gmax", "setting": "[4]; heat-activated spores, 10.0 mM KBr overnight at 4° C. before full germinant solution", "value": 85, "unit": "%"}, {"measurement": "Gmax", "setting": "[4]; heat-activated spores, 10.0 mM KBr overnight at 22° C. before full germinant solution", "value": 61, "unit": "%"}, {"measurement": "Gmax as compared to spores not pretreated with KBr", "setting": "[4]; heat-treated spores, at 22° C., 0.5, 3.0, or 10.0 mM KBr", "value": "decreased"}, {"measurement": "Percentage of spores that germinated (Gmax) as compared to spores not pretreated with KBr", "setting": "[4]; native or heat-treated spores, at 4° C., 3.0 or 10.0 mM KBr", "value": "increased"}, {"measurement": "Gmax", "setting": "[4]; native spores, 0.5 mM KBr overnight at 4° C. before full germinant solution", "value": 24, "unit": "%"}, {"measurement": "Gmax", "setting": "[4]; native spores, 0.5 mM KBr overnight at 22° C. before full germinant solution", "value": 62, "unit": "%"}, {"measurement": "Gmax", "setting": "[4]; native spores, 3.0 mM KBr overnight at 4° C. before full germinant solution", "value": 31, "unit": "%"}, {"measurement": "Gmax", "setting": "[4]; native spores, 3.0 mM KBr overnight at 22° C. before full germinant solution", "value": 96, "unit": "%"}, {"measurement": "Gmax", "setting": "[4]; native spores, 10.0 mM KBr overnight at 4° C. before full germinant solution", "value": 29, "unit": "%"}, {"measurement": "Gmax", "setting": "[4]; native spores, 10.0 mM KBr overnight at 22° C. before full germinant solution", "value": 103, "unit": "%"}, {"measurement": "Tlag as compared to spores not pretreated with KBr", "setting": "[4]; some samples: 4° C. native spores 3.0 or 10.0 mM KBr, 22° C. heat-activated spores 0.5 mM KBr", "value": "different"}]}, {"smiles": "C[C@H](N)C(=O)O", "note": "[L-alanine]", "values": [{"measurement": "Germination of spores (decrease in relative OD580)", "setting": "[1]", "value": "None"}, {"measurement": "Germination of spores (decrease in relative OD580)", "setting": "[5]", "value": "caused germination of the spores"}, {"measurement": "Germination as a result of the L-alanine treatment, determined by microscopy", "setting": "[2]; 1 mM L-alanine for 24 hours at 4° C., before D-fructose", "value": "No germination"}, {"measurement": "Germination (DPA release) when D-fructose was added", "setting": "[2]; L-alanine 24 hours, washed out prior to addition of D-fructose", "value": "did not germinate"}, {"measurement": "Germination (DPA release) when D-fructose was added", "setting": "[2]; spores treated with 1 mM L-alanine for 24 hours, then 10 mM D-fructose", "value": "germinated"}, {"measurement": "Germination due to the L-alanine treatment, determined by microscopy", "setting": "[3]; 0.5-10.0 mM L-alanine for 24 hours at 4° C., before D-fructose", "value": "no germination"}, {"measurement": "Extent of germination versus amount of L-alanine", "setting": "[3]; 0.5 to 10 mM L-alanine pretreatment, then 10 mM D-fructose", "value": "increased as the amount of L-alanine increased"}, {"measurement": "Germination (DPA release) on addition of D-fructose", "setting": "[3]; spores treated with L-alanine 24 hours, then D-fructose (10 mM) at time 0", "value": "caused germination"}, {"measurement": "Molecules causing germination", "setting": "[6]; strain SB3615, each substance 3 mM", "value": "L-alanine"}, {"measurement": "Germination of spores (decrease in relative OD580)", "setting": "[6]; substance alone, 3 mM, heat-activated spores, 37° C., 70 minutes", "value": "could cause germination"}]}, {"smiles": "N[C@@H](CS)C(=O)O", "note": "[L-cysteine]", "values": [{"measurement": "Germination of spores (decrease in relative OD580)", "setting": "[1]", "value": "None"}]}, {"smiles": "N[C@@H](Cc1c[nH]cn1)C(=O)O", "note": "[L-histidine]", "values": [{"measurement": "Germination of spores (decrease in relative OD580)", "setting": "[5]", "value": "caused germination of the spores"}]}, {"smiles": "CC[C@H](C)[C@H](N)C(=O)O", "note": "[L-isoleucine]", "values": [{"measurement": "Germination of spores (decrease in relative OD580)", "setting": "[5]", "value": "caused germination of the spores"}]}, {"smiles": "CC(C)C[C@H](N)C(=O)O", "note": "[L-leucine]", "values": [{"measurement": "Germination of spores (decrease in relative OD580)", "setting": "[5]", "value": "caused germination of the spores"}]}, {"smiles": "N[C@@H](Cc1ccccc1)C(=O)O", "note": "[L-phenylalanine]", "values": [{"measurement": "Germination of spores (decrease in relative OD580)", "setting": "[5]", "value": "caused germination of the spores"}]}, {"smiles": "O=C(O)[C@@H]1CCCN1", "note": "[L-proline]", "values": [{"measurement": "Germination of spores (decrease in relative OD580)", "setting": "[5]", "value": "caused germination of the spores"}]}, {"smiles": "OC[C@H]1O[C@@](CO)(O[C@H]2O[C@H](CO)[C@@H](O)[C@H](O)[C@H]2O)[C@@H](O)[C@@H]1O", "note": "[sucrose]", "values": [{"measurement": "Germination of spores (decrease in relative OD580)", "setting": "[1]", "value": "None"}]}]}
